Experimental findings from PubChem BioAssay (NCI) are described below.

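Tested at 5 concentrations; 48 h exposure; 96-well plates; endpoints linearly interpolated, else capped at highest concentration. GI50 marks 50% less growth. TGI: total growth inhibition.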

The subject of this assay is MDA-MB-468 breast. As to the kind of experiment: growth of human tumour cells (NCI), 48 h.
Take `Cc1ccc(S(=O)(=O)OC[C@@]2(C)CC[C@]3(C)CC[C@]4(C)C(=C3C2)C=C[C@@H]2[C@@]3(C)CCCNC(C)(C)[C@@H]3CC[C@]24C)cc1`: the GI50 is 1590 nM and the TGI was determined as 3.22 µM.

`COc1cc(C(=O)c2cnc(-c3c[nH]c4cccc(C)c34)[nH]2)cc(OC)c1OC`: the GI50 is 2.64 nM. With `CC1(C)CC(O)CC(C)(C)N1O`, the GI50 is over 100000 nM and the TGI is over 100 µM. As for `O=C1C(Cl)=C(Nc2ccc(S(=O)(=O)c3ccc(NC4=C(Cl)C(=O)c5ccccc5C4=O)cc3)cc2)C(=O)c2ccccc21`, the GI50 was 1500 nM and the TGI was 3.09 µM. The corresponding values for `CC[C@H](C)[C@H](NC(=O)C12C3C4C1C1C2C3C41NC)C(=O)N(C)[C@H](C[C@@H](OC(C)=O)c1nc(C(=O)N[C@@H](Cc2ccccc2)C[C@H](C)C(=O)OC)cs1)C(C)C` (stereo partly drawn) are 217 nM and over 5.49 µM.

`COC(=O)c1c(C)nc(C)c2c1C(=O)C(Br)=C(NCc1ccccc1)C2=O`: the GI50 was 1110 nM and the TGI was 2.75 µM. The corresponding values for `COc1cc(-c2nc(-c3ccccc3)c(-c3ccccc3)[nH]2)cc(OC)c1O` are 15200 nM and 37.7 µM. As to `Nc1nc(SCc2ccccc2CCl)c2[nH]cnc2n1`, the GI50 is 11900 nM and the TGI amounted to 30.8 µM.

As to `Nc1ccc(CC[C@H]2CCC/C=C/[C@@H]3C[C@H](O)C[C@H]3[C@H](O)/C=C/C(=O)O2)cc1`, the GI50 was 10.6 nM and the TGI was found to be 0.0374 µM.

Consider `NC(=NCCCCCCN=C(N)/N=C(\N)Nc1ccc(Cl)cc1)/N=C(\N)Nc1ccc(Cl)cc1`, for which the GI50 was 952 nM and the TGI stood at 2.28 µM. The corresponding values for `[O]=[Sn]([CH]1CCCCC1)[CH]1CCCCC1` are 97.7 nM and 0.25 µM. The corresponding values for `CCCCNc1ncnc2c1cnn2-c1ccccc1` are 2240 nM and 7.6 µM. The corresponding values for `N[C@@H]1CCCN(c2c(Br)cnc3[nH]cc(NC(=O)C4CC4)c23)C1` are 2110 nM and 36.2 µM. Take `CCn1c(-c2nonc2N)nc2ccccc21`: the GI50 is over 14900 nM and the TGI is over 25 µM. The corresponding values for `CN(C)CCCN1c2ccccc2Sc2ccc(C(F)(F)F)cc21` are 1250 nM and 2.65 µM. The corresponding values for `COc1cc2c(c(OC)c1OC)-c1cc(I)c(O)cc1[C@@H](NC(C)=O)CC2` are 24.3 nM and 0.0715 µM. The corresponding values for `Cc1cc(NC(=O)NCc2ccc(N3C(N)=NC(N)=NC3(C)C)cc2)ccc1S(=O)(=O)F` are 7990 nM and over 100 µM. On to `CCN(CC)CCOC(COc1cc(C)cc(C)c1)COc1cc(C)cc(C)c1`, for which the GI50 is 1740 nM and the TGI was 3.55 µM. For `Cc1ccc(-c2nc(NCCOCCOCCN)nc(N3CCN(c4ccccn4)CC3)n2)cc1`, in that order: 7040 nM and 18 µM. For `CC1(C)N=C(N)N=C(N)N1c1ccc(CCCC(=O)Nc2ccc(S(=O)(=O)F)cc2)cc1`, in that order: 3330 nM and over 100 µM. In the case of `CCN(CC)c1ccc(/C=N/NC(=O)Cc2ccc(Nc3ccnc(C(F)(F)F)c3)cc2)c(O)c1`, the GI50 was 588 nM and the TGI was over 60.3 µM. The corresponding values for `CN1CCCCC1CCN1c2ccccc2Sc2ccc(Br)cc21` (stereo not drawn) are 1780 nM and 3.65 µM. Take `Clc1ccc2c(NCCNc3nc(N4CCOCC4)nc4ccccc34)ccnc2c1`: the GI50 was 1910 nM and the TGI was found to be 4.53 µM. The corresponding values for `CC[C@]12C=CCN3CC[C@]4(C(=C(C(=O)OC)C1)Nc1cc5c(cc14)[C@@H]1[C@H](O5)[C@@H](O)[C@@]4(CC)CC(C(=O)OC)=C5Nc6cc(O)ccc6[C@@]56CCN1C46)C32` (stereo partly drawn) are 38.4 nM and 1.51 µM. The corresponding values for `COc1cc2ncn(-c3cc(OCc4ccccc4C(F)(F)F)c(C(N)=O)s3)c2cc1OC` are 61.9 nM and 0.857 µM. For `CC(=O)c1cc2c(N)c(C(=O)Nc3cccc4ccccc34)sc2nc1C`, in that order: 1640 nM and 31.1 µM. Regarding `O=C(Nc1cccc(-n2ccc3c(NC(=O)c4ccccc4)ncnc32)c1)Nc1ccc(Cl)c(C(F)(F)F)c1`, the GI50 was 1480 nM and the TGI was determined as 6.06 µM. In the case of `CCCCCCCCCCCC1N=C(N)N=C(N)N1c1cccc(Br)c1` (stereo not drawn), the GI50 was 528 nM and the TGI came to 1.98 µM. For `COc1cc(N=Nc2cc(Cc3ccc(N(C)C)cc3)c(N)cc2N(C)C)c2ncccc2c1`, in that order: 226 nM and 0.622 µM.

As to `CCn1cc(C(=O)O)c(=O)c2cc(F)c(N3CCN(S(=O)(=O)c4ccc(Cl)cc4Cl)CC3)cc21`, the GI50 is 1980 nM and the TGI came to 5.5 µM. For `CNC(=O)CCN1CCN(CC/C=C2\c3ccccc3Sc3ccc(Cl)cc32)CC1`, in that order: 3630 nM and 16.9 µM. The corresponding values for `CN1C2C=CC(=O)C1C1C(=O)N(c3ccccc3)C(=O)C12` (stereo not drawn) are 2450 nM and 9.03 µM. As for `Cn1c(=O)c(-c2ccccc2Cl)cc2cnc(NC3CCOCC3)nc21`, the GI50 is over 19900 nM and the TGI is over 25 µM.

As for `Nc1ncn([C@H]2CC(O)[C@@H](CO)S2)c(=O)n1` (stereo partly drawn), the GI50 was 5800 nM and the TGI is over 100 µM.

Consider `O=C(/C=C/c1ccc(O)c(O)c1)N1CCN(c2ccc(Cl)cc2)CC1`, for which the GI50 was 2450 nM and the TGI was determined as 13 µM.

As to `O=c1c(I)c[nH]cc1I`, the GI50 is over 100000 nM and the TGI was over 100 µM. The corresponding values for `CC[C@H](C)[C@H](NC(=O)[C@H]1CCCCN1C)C(=O)N(C)[C@H](CCc1nc(C(=O)N[C@@H](Cc2ccccc2)C[C@H](C)C(=O)O)cs1)C(C)C` are 85 nM and over 25 µM. For `[Br][Pb]([c]1ccccc1)([c]1ccccc1)[c]1ccccc1`, in that order: 148 nM and 0.294 µM. The corresponding values for `COc1cccc(C2CC(=O)Nc3c2c(C)nn3-c2nc3ccccc3[nH]2)c1OC` (stereo not drawn) are 4110 nM and 32.6 µM.

As for `COc1ccc2nc3ccccc3c(NCCNCCO)c2c1`, the GI50 was 351 nM and the TGI was determined as 1.37 µM. Take `Cc1cc(N2CCC(N3CCCC3)CC2)nc(/N=C(\N)Nc2ccc(Cl)c(Cl)c2)n1`: the GI50 was 1400 nM and the TGI stood at 2.73 µM. For `Cc1ccc(NCCNCC(C)(C)O)c2c(=O)c3ccc(Cl)cc3sc12`, in that order: 1700 nM and 3.24 µM.
